The values below are quoted from earlier work in patent US20250064759A1, “CONTAINER COMPRISING A LISDEX[…] SOLUTION” (LABOMED PHARMACEUTICAL COMPANY S.A., priority 2021, published 2025).

The conditions of the data set: in vivo.

As for `C[C@@H](Cc1ccccc1)NC(=O)[C@@H](N)CCCCN` [Lisdexamfetamine, L-lysine-d-amfetamine], the “period over which dexamfetamine is delivered” value was “about 8 hours”.
